From publication PMC6327263, “Evaluation of Novel 3-Hydroxyflavone Analogues as HDAC Inhibitors against Colorectal Cancer” (Advances in Pharmacological Sciences, 2018)

Columns and labels:
[1] = tested on: Wistar rats; format: in vivo; settings: 2000 mg/kg p.o., limit test, 14 days observation
Experimental: Animal care and handling were carried out according to the guidelines of the Committee for the Purpose of Control and Supervision of Experiments on Animals (CPCSEA), after seeking the approval of the research proposal by institutional animal ethics committee (IAEC) (IAEC/KMC/23/2015). Male Wistar rats inbred at the central animal research facility (CARF), Manipal academy of higher education (MAHE), was used in the present study. […] The animals were housed in sterile polypropylene cages containing sterile paddy husk and were provided with 12 h light and dark cycles.
The safe dose of the promising two analogues (QMJ-2 and QMJ-5) and quercetin were evaluated using Organization for Economic Cooperation and Development (OECD), 425 guidelines. Limit test was performed using 2000 mg/kg dose.

[2] = tested on: acetyl histone H3K9; experiment: Western blotting, acetyl histone H3K9 expression; format: cell-based, human; settings: HCT116 cells, 24 h, compared to normal control
Experimental: After various treatments for 24 h, cells were lysed, and protein quantification of the lysates was estimated using the BCA™ kit (Thermo Fisher Scientific Inc., Waltham, MA, USA). Proteins samples (30 µg) were resolved on a 10% SDS-PAGE and transferred onto a PVDF membrane and blocked with 5% nonfat milk in TBST (tris-buffered saline with Tween-20) buffer for 1 h followed by washing in TBST buffer. The membrane was then probed with primary antibodies (GAPDH, HDAC8, p21^Waf1/Cip1, and acetyl-histone H3[Ac-Lys^9]) and incubated overnight at 4°C. The membrane was washed with TBST buffer and incubated with horseradish peroxidase-conjugated secondary antibody for 1 h at room temperature. Signal was captured using SuperSignal™ West Pico Plus chemiluminescent substrate (Thermo Fischer Scientific Inc., Waltham, MA, USA) on gel documentation system (G : BOX Chemi XRQ, Syngene). The protein band densities were estimated using the software ImageJ (version 1.46r, NIH, Bethesda, MD, USA).

Structure (SMILES)	acute toxicity, tolerability [1]	mortality [1]	expression of acetylated histone H3K9 [2]
O=c1c(O)c(-c2ccc(O)c(O)c2)oc2cc(O)cc(O)c12 [Quercetin, quercetin, reference compound]	safe and well tolerated	no mortality	
Cc1ccc(-c2oc3cc(C)ccc3c(=O)c2O)cc1 [QMJ-5, 3-Hydroxy-7-methyl-2-(4-methylphenyl)-4H-1-benzopyran-4-one]			significant increase
